Patent publication US7145010B2, “Tert-alkylphenoxy-substituted polycyclic compounds” (BASF Aktiengesellschaft, priority 2001, dated 2006)
≈ marks a conversion by molar mass, not a printed value.

Key:
[1] = Homogeneous incorporation into aqueous polymer dispersions (Example 25 of WO-A-99/40123 repeated); type: physicochemical
Excerpt: Example 25 of WO-A-99/40123 was repeated to prepare aqueous polymer dispersions containing 15% by weight of the fluorescent colorant of Example 2 or […] of the near infrared absorber of Example 6 in homogeneous dispersion. The corresponding phenoxy-substituted derivatives, by contrast, were only incorporable with homogeneous results up to a concentration of respectively 7 and 1% by weight.

[2] = Solubility in extremely nonpolar to polar solvents

Row | Molecule | Concentration contained in homogeneous dispersion in aqueous polymer dispersion [1] | Solubility in Isopropanol (50° C.) [2] | Solubility in Pentane (25° C.) [2] | Solubility in Toluene (25° C.) [2]
1 | CC(C)c1cccc(C(C)C)c1N1C(=O)c2cc(Oc3ccc(C(C)(C)CC(C)(C)C)cc3)c3c4c(Oc5ccc(C(C)(C)CC(C)(C)C)cc5)cc5c6c(cc(Oc7ccc(C(C)(C)CC(C)(C)C)cc7)c(c7c(Oc8ccc(C(C)(C)CC(C)(C)C)cc8)cc(c2c37)C1=O)c64)C(=O)N(c1c(C(C)C)cccc1C(C)C)C5=O [Example 2] | 15 % by weight | 92 mg/mL (≈ 60.2 mM) | 81 mg/mL (≈ 53 mM) | >400 mg/mL
2 | CC(C)c1cccc(C(C)C)c1N1C(=O)c2cc(Oc3ccc(C(C)(C)CC(C)(C)C)cc3)c3c4cccc5c(Oc6ccc(C(C)(C)CC(C)(C)C)cc6)ccc(c6c(Oc7ccc(C(C)(C)CC(C)(C)C)cc7)cc(c2c36)C1=O)c54 [Example 1] | – | 56 mg/mL (≈ 51.2 mM) | 53 mg/mL (≈ 48.4 mM) | >250 mg/mL
3 | CCCCCCCCCCCCN1C(=O)c2ccc3c4c(Oc5ccc(C(C)(C)CC(C)(C)C)cc5)cc5c6c(ccc(c7c(Oc8ccc(C(C)(C)CC(C)(C)C)cc8)cc(c2c37)C1=O)c64)C(=O)N(CCCCCCCCCCCC)C5=O [Example 5] | – | 47 mg/mL (≈ 41.4 mM) | 24 mg/mL (≈ 21.1 mM) | 155 mg/mL (≈ 136 mM)
4 | 1:1 mixture of N,N′-bis(2,6-diisopropylphenyl)-1,6,8,11,16,18-hexa(p-tert-octylphenoxy)-quaterrylene-3,4:13,14-tetracarboxylic diimide and N,N′-bis(2,6-diisopropyl-phenyl)-1,6,8,11,16,19-hexa(p-tert-octylphenoxy)quaterrylene-3,4:13,14-tetracarboxylic diimide [Example 6] | – | 49 mg/mL | 55 mg/mL | >500 mg/mL
5 | CC(C)c1cccc(C(C)C)c1N1C(=O)c2cc(Oc3ccc(C(C)(C)CC4CCCCC4)cc3)c3c4c(Oc5ccc(C(C)(C)CC6CCCCC6)cc5)cc5c6c(cc(Oc7ccc(C(C)(C)CC8CCCCC8)cc7)c(c7c(Oc8ccc(C(C)(C)CC9CCCCC9)cc8)cc(c2c37)C1=O)c64)C(=O)N(c1c(C(C)C)cccc1C(C)C)C5=O [Example 3] | – | 87 mg/mL (≈ 53.3 mM) | 65 mg/mL (≈ 39.8 mM) | >350 mg/mL
6 | CC(C)c1cccc(C(C)C)c1N1C(=O)c2ccc3c4c(Oc5ccc(C(C)(C)CC(C)(C)C)cc5)cc5c6c(ccc(c7c(Oc8ccc(C(C)(C)CC(C)(C)C)cc8)cc(c2c37)C1=O)c64)C(=O)N(c1c(C(C)C)cccc1C(C)C)C5=O [Example 4] | – | 59 mg/mL (≈ 52.7 mM) | 55 mg/mL (≈ 49.1 mM) | >250 mg/mL
